Assay results reported in patent US8993007B2, “Preparation used for anti-tachyarrhythmia and its preparation method” (Heshengyuan of Chinese Medicine Research & Development …, priority 2012, dated 2015).
Where “and” joins values, the source holds several entries; their conditions need not be identical. Equal values may be shown once.

Columns and labels:
[1] = test system: Wistar male rats; experiment: MI areas after ligation of left anterior descending artery; type: in vivo; details: Metoprolol 2.25 mg/kg, Shengsong Yangxin capsule 0.432 g/kg; intragastric 7 days
Method: (§1) The rats were fixed on their back on board and chloral hydrate (10 mg/kg) intraperitoneally administered. Between the rib 4 and 5 on the left side, an open was cut into pleural cavity and the pericardium was torn open, then the heart was extruded by light pressure to the thorax. Two mm beneath left auricle, a ligation was done on left anterior descending artery with surgical suture (USP 0) and the heart was put back to the thorax. The cut open was closed and stitched. Penicillin (up to 80,000 unit) was used for the incision to protect again infection.
Sixty-six rats models were randomly assigned to 6 groups, 11 for each. They were the model group, the Metoprolol group, the Shengsong Yangxin capsule group, the large-dose extract group, the moderate-dose extract group and the small-dose extract group.
1) The Metoprolol group. Due to the administration of β receptor inhibitor after myocardial infarction (MI), Metoprolol was administered initially at small dose of 12.5 mg, bid, that is, the dosage was 25×0.018×5=2.25 mg/kg. Metoprolol 67.5 mg was accurately weighed and evenly dissolved with 300 ml normal saline (0.9%). […]
The hearts of the rats were harvested 2 hours after the last treatments were administered and the residues of blood in the heart chambers were washed with normal saline. […] Armed with the MPIDS-500, two technicians measured the MI areas on both sides of the slices. […]

[2] = test system: Na^+—K^+-ATPase; experiment: Na+-K+-ATPase concentration in cardiac tissue homogenate of MI rats (assay kit); type: in vivo; details: Metoprolol, Shengsong Yangxin capsule (doses per b188: 2.25 mg/kg, 0.432 g/kg), intragastric 7 days
Method: as §1, with “beneath the” for “beneath”
(§2) Forty-two rats models were randomly assigned to 6 groups, 7 for each. They were the model group, the Metoprolol group, the Shengsong Yangxin capsule group, the large-dose extract group, the moderate-dose extract group, the small-dose extract group. Added were a control group of 6 rats and sham operation group of 6 rats. Totally there were 8 groups.
(§3) 1.2.3 Medicines Doses and Preparation. See Section 1.2.3 in the Experiment Example 1.
(§4) Starting from the next day after model establishment, the medicines were all administered intragastrically to the relevant groups accordingly, while the model group and sham operation group were given normal saline. The treatment course lasted for 7 days. […]

[3] = test system: Ca^2+-ATPase; experiment: Ca2+-ATPase concentration in cardiac tissue homogenate of MI rats (assay kit); type: in vivo; details: Metoprolol, Shengsong Yangxin capsule (doses per b188: 2.25 mg/kg, 0.432 g/kg), intragastric 7 days
Method: as §1, with “beneath the” for “beneath”
as §2, §3, §4

[4] = test system: connexin 43; experiment: Western Blot test of connexin 43 in MI areas; type: in vivo, rats; details: Metoprolol, Shengsong Yangxin capsule, intragastric 7 days
Method: as §1, with “fixed the” for “fixed”, “(3.5%, […]” for “(10”
Eighty-four rats' models were randomly assigned to 6 groups, 14 for each. They were the model group, the Metoprolol group, the Shengsong Yangxin capsule group, the large-dose extract group, the moderate-dose extract group, the small-dose extract group. Two more groups added were the control group of 13 rats and sham operation group of 13 rats. Some rats were dead the next day before intragastrical administration: 1 in the sham operation group, model group, Metoprolol group, Shengsong Yangxin capsule group, large-dose extract group and moderate-dose extract group respectively and 2 in the small-dose extract group.
1.2.3 Medicines Doses and Preparation. See Section 1.2.3 in the Experiment Example 1. […]

[5] = test system: connexin 43; experiment: Immunohistochemical expression of connexin 43 in left ventricle; type: in vivo, rats; details: immunohistochemistry; Metoprolol, Shengsong Yangxin capsule; intragastric 7 days
Method: (§5) Two primary antibodies were used in immunohistochemical test. The connexin 43 rabbit ploy-colonal antibody was supplied by CST, USA, Batch No. 08/2011 and phospho-connexin 43 (ser 368) rabbit ploy-colonal antibody was supplied by Santa Cruz, USA, Batch no. G2011. SP 2-step reagent kit for secondary antibody was supplied by Beijing Zhongshan Goldenspace Biotechnology Co. Ltd., Batch no. K116812C. Anhydrous ethyl alcohol was supplied by Beijing Chemical Works, 2500 ml/bottle, Batch no. 20110808.95% ethanol was supplied by Beijing Chemical Works, 2500 ml/bottle, Batch no. 20110808. Formalin solution was supplied by Xilong Chemical Corporation, 500 ml/bottle, Batch no. 1110082. Xylene solution was supplied by Beijing Chemical Works, 500 ml/bottle, Batch no. 20110808. Paraffin section (54-56° C.) was supplied by Beijing Beihuakangtai Reagents Co. Ltd., Batch no. 20110428. DAB reagent kit was supplied by Beijing ComWin Biotech Co. Ltd., Batch no. 03911H. Polylysine, strength 25 mg, was supplied by Shanghai Sigma-aldrich Trading Co. Ltd., Batch no. P1399. Microscopic cover glass (24×24 mm) and slide glass (model 7105) were supplied by Beijing Chuanganghuaxin Experimental Instrument Co. Ltd. Stainless steel pressure port, microwave oven, thermostatic waterbath, immunohistochemistry kit, antigen retrieval kit, and microscope. […]

[6] = test system: phospho-connexin 43 (ser 368); experiment: Immunohistochemical expression of phospho-connexin 43 in left ventricle; type: in vivo, rats; details: immunohistochemistry; Metoprolol, Shengsong Yangxin capsule; intragastric 7 days
Method: as §5

[7] = test system: CD mice; experiment: CaCl2-induced arrhythmia, efficacy screening test; type: in vivo; details: CaCl2 tail vein 45 min after duodenal administration, amiodarone 78 mg/kg, NO.1 18.2, NO.2 157.6, NO.3 9.1, NO.4 462, NO.5 139, NO.6 1.16 mg/kg, NO.7 1.3 g/kg; for Duration (of arrhythmia), single animals: animals 1-10; for Duration (of arrhythmia), Mean: mean of 10 animals
Method: 90 CD mice, male, weighing 28-30 g, Beijing Vital River Laboratory Animal Technology Co., license number Sea (Beijing) 2006-0009. […] Before administration each drug was prepared to the desired concentration with physiological saline, duodenal route of administration, the dose of 10 mL/kg. […] Observed ECG whether induced arrhythmia, recorded the duration of ventricular arrhythmia; and the results were statistically analyzed.

SMILES	MI area/total area of ventricular chamber (%) [1]	Concentrations of Na^+-k^+-ATPase [2]	The concentrations of Ca^2+-ATPase [3]	Gray degree of Connexin 43 [4]	IOD of connexin 43 [5]	expression Area of connexin 43 [5]	IOD values of phospho-connexin 43 [6]	expression Area of phospho-connexin 43 [6]	Duration (of arrhythmia), single animals [7]	Duration (of arrhythmia), Mean [7]
COCCc1ccc(OCC(O)CNC(C)C)cc1 (stereo not drawn) [Metoprolol]	19.0847 ± 2.819 %	10.1177 ± 0.167**ΔΔ U/ml	17.5339 ± 0.2439**ΔΔ U/ml	0.5443 ± 0.1523**ΔΔ	4535.0243 ± 1743**ΔΔ	17723.1800 ± 6672**ΔΔ	2686.5321 ± 1725**ΔΔ	13283.8000 ± 8070**ΔΔ		
COc1cc2c(cc1OC)[C@@H]1Cc3ccc(OC)c(OC)c3CN1CC2 [Sample6, Tetrahydropalmatine]									70 s (2×) and 79 s (2×) and 100 s and 47 s and 181 s and 104 s and 130 s and 80 s	94.0 s
CCCCc1oc2ccccc2c1C(=O)c1cc(I)c(OCCN(CC)CC)c(I)c1 [amiodarone]									60 s and 106 s and 76 s and 53 s and 104 s and 99 s and 0 s and 86 s and 88 s and 120 s	79.2 s
